Active and inactive are the calls of the source. How the calls were made is not given here.
Test system: CCRIS mutagenicity, Ames/micronucleus/aberration tests
Assay: CCRIS mutagenicity studies

Measured: mutagenic call

C1COCCO1
inactive: Test System: AMES SALMONELLA TYPHIMURIUM, Strain/Indicator: TA1535, Metabolic Activation: RAT LIVER S-9, PHENOBARBITAL AND BETA-NAPHTHOFLAVONE (30%), Method: PREINCUBATION inactive; negative | Test System: AMES SALMONELLA TYPHIMURIUM, Strain/Indicator: TA1535, Metabolic Activation: RAT LIVER S-9, PHENOBARBITAL AND BETA-NAPHTHOFLAVONE, Method: GAS EXPOSURE inactive; negative | Test System: AMES SALMONELLA TYPHIMURIUM, Strain/Indicator: TA1537, Metabolic Activation: HAMSTER LIVER S-9, PHENOBARBITAL AND BETA-NAPHTHOFLAVONE (10%), Method: PREINCUBATION inactive; negative | Test System: AMES SALMONELLA TYPHIMURIUM, Strain/Indicator: TA1537, Metabolic Activation: HAMSTER LIVER S-9, PHENOBARBITAL AND BETA-NAPHTHOFLAVONE (30%), Method: PREINCUBATION inactive; negative | Test System: AMES SALMONELLA TYPHIMURIUM, Strain/Indicator: TA1537, Metabolic Activation: NONE, Method: GAS EXPOSURE inactive; negative | Test System: AMES SALMONELLA TYPHIMURIUM, Strain/Indicator: TA1537, Metabolic Activation: NONE, Method: PREINCUBATION inactive; negative | Test System: AMES SALMONELLA TYPHIMURIUM, Strain/Indicator: TA1537, Metabolic Activation: NONE, Method: STANDARD PLATE inactive; negative | Test System: AMES SALMONELLA TYPHIMURIUM, Strain/Indicator: TA1537, Metabolic Activation: RAT LIVER S-9, PHENOBARBITAL AND 5,6-BENZOFLAVONE, Method: PREINCUBATION inactive; negative | Test System: AMES SALMONELLA TYPHIMURIUM, Strain/Indicator: TA1537, Metabolic Activation: RAT LIVER S-9, PHENOBARBITAL AND 5,6-BENZOFLAVONE, Method: STANDARD PLATE inactive; negative | Test System: AMES SALMONELLA TYPHIMURIUM, Strain/Indicator: TA1537, Metabolic Activation: RAT LIVER S-9, PHENOBARBITAL AND BETA-NAPHTHOFLAVONE (10%), Method: PREINCUBATION inactive; negative | Test System: AMES SALMONELLA TYPHIMURIUM, Strain/Indicator: TA1537, Metabolic Activation: RAT LIVER S-9, PHENOBARBITAL AND BETA-NAPHTHOFLAVONE (30%), Method: PREINCUBATION inactive; negative | Test System: AMES SALMONELLA TYPHIMURIUM, Strain/Indicator: TA1537, Metabolic Activation: RAT LIVER S-9, PHENOBARBITAL AND BETA-NAPHTHOFLAVONE, Method: GAS EXPOSURE inactive; negative | Test System: E.COLI, Strain/Indicator: WP2 (PKM101), Metabolic Activation: NONE, Method: PREINCUBATION inactive; negative | Test System: E.COLI, Strain/Indicator: WP2 (PKM101), Metabolic Activation: NONE, Method: STANDARD PLATE inactive; negative | Test System: E.COLI, Strain/Indicator: WP2 (PKM101), Metabolic Activation: RAT LIVER S-9, PHENOBARBITAL AND 5,6-BENZOFLAVONE, Method: PREINCUBATION inactive; negative | Test System: E.COLI, Strain/Indicator: WP2 (PKM101), Metabolic Activation: RAT LIVER S-9, PHENOBARBITAL AND 5,6-BENZOFLAVONE, Method: STANDARD PLATE inactive; negative | Test System: E.COLI, Strain/Indicator: WP2 UVRA (PKM101), Metabolic Activation: NONE, Method: PREINCUBATION inactive; negative | Test System: E.COLI, Strain/Indicator: WP2 UVRA (PKM101), Metabolic Activation: NONE, Method: STANDARD PLATE inactive; negative | Test System: E.COLI, Strain/Indicator: WP2 UVRA (PKM101), Metabolic Activation: RAT LIVER S-9, PHENOBARBITAL AND 5,6-BENZOFLAVONE, Method: STANDARD PLATE inactive; negative | Test System: E.COLI, Strain/Indicator: WP2 UVRA(PKM101), Metabolic Activation: RAT LIVER S-9, PHENOBARBITAL AND 5,6-BENZOFLAVONE, Method: PREINCUBATION inactive; negative | Test System: E.COLI, Strain/Indicator: WP2UVRA/PKM101, Metabolic Activation: NONE, Method: GAS EXPOSURE inactive; negative | Test System: E.COLI, Strain/Indicator: WP2UVRA/PKM101, Metabolic Activation: RAT LIVER S-9, PHENOBARBITAL AND BETA-NAPHTHOFLAVONE, Method: GAS EXPOSURE inactive; negative | Test System: E.COLI, Strain/Indicator: WP2UVRA, Metabolic Activation: HAMSTER LIVER S-9, PHENOBARBITAL AND BETA-NAPHTHOFLAVONE (10%), Method: PREINCUBATION inactive; negative | Test System: E.COLI, Strain/Indicator: WP2UVRA, Metabolic Activation: HAMSTER LIVER S-9, PHENOBARBITAL AND BETA-NAPHTHOFLAVONE (30%), Method: PREINCUBATION inactive; negative | Test System: E.COLI, Strain/Indicator: WP2UVRA, Metabolic Activation: NONE, Method: GAS EXPOSURE inactive; negative | Test System: E.COLI, Strain/Indicator: WP2UVRA, Metabolic Activation: NONE, Method: PREINCUBATION inactive; negative | Test System: E.COLI, Strain/Indicator: WP2UVRA, Metabolic Activation: RAT LIVER S-9, PHENOBARBITAL AND BETA-NAPHTHOFLAVONE (10%), Method: PREINCUBATION inactive; negative | Test System: E.COLI, Strain/Indicator: WP2UVRA, Metabolic Activation: RAT LIVER S-9, PHENOBARBITAL AND BETA-NAPHTHOFLAVONE (30%), Method: PREINCUBATION inactive; negative | Test System: E.COLI, Strain/Indicator: WP2UVRA, Metabolic Activation: RAT LIVER S-9, PHENOBARBITAL AND BETA-NAPHTHOFLAVONE, Method: GAS EXPOSURE inactive; negative | Test System: MOUSE LYMPHOMA, Strain/Indicator: L5178Y (TK+/TK-), Metabolic Activation: NONE, Method: MICROTITER inactive; negative | Test System: MOUSE LYMPHOMA, Strain/Indicator: L5178Y (TK+/TK-), Metabolic Activation: NONE, Method: SUSPENSION/PLATE inactive; negative | Test System: MOUSE LYMPHOMA, Strain/Indicator: L5178Y (TK+/TK-), Metabolic Activation: RAT LIVER S-9, PHENOBARBITAL AND 5,6-BENZOFLAVONE (2 OR 5%), Method: MICROTITER inactive; negative | Test System: MOUSE LYMPHOMA, Strain/Indicator: L5178Y (TK+/TK-), Metabolic Activation: RAT, LIVER, S-9, AROCLOR 1254, Method: SUSPENSION/PLATE inactive; negative
